Patent US20190152946A1, “Novel Compounds” (GlaxoSmithKline Intellectual Property Development Limited, priority 2016, published 2019)

Biological target: T1, TEC (Homo sapiens, UniProt P42680)
T1 construct: endogenous in cells; host or cells: THP-1
T1 sequence (P42680 1-631): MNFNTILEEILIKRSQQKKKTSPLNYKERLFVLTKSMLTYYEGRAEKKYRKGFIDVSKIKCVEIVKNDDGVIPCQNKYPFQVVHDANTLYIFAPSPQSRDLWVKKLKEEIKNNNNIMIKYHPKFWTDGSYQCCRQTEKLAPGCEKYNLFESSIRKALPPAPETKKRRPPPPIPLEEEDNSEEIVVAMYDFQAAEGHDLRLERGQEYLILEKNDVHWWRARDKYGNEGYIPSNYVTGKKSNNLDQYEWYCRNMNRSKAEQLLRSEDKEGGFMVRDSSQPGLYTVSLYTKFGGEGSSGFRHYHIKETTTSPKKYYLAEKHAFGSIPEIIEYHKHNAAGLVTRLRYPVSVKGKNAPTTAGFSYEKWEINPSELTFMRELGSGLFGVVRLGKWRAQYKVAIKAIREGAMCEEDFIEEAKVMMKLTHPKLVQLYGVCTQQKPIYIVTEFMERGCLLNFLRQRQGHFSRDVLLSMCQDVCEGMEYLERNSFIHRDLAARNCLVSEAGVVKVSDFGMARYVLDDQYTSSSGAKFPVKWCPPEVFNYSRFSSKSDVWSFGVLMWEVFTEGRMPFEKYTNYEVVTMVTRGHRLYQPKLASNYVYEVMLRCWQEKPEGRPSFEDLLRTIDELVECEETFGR
Test: Expression proteomics in THP-1 cells, TEC level
Assay type: cell-based
Details: TEC protein log2 fold change, 24 h, 1.0 μM
Protocol: THP-1 cells were seeded at a concentration of 3×10^6 cells in T175 flasks with 60 mL growth medium (RPM11640+10% FBS). […] of a 10× compound solution prepared in growth medium (DMSO), IAP PROTAC) was added and the cells were treated for the indicated time points (6 or 24 h) at 37° C., 5% CO2. For harvesting the cells were collected into falcon tubes on ice, centrifuged and washed twice in cold PBS (Life technologies). After the last washing step the supernatant was removed and the pellets were snap-frozen in liquid N2 and stored at −80° C. and lysed in 2% SDS for 3 min at 95° C. in a thermomixer (Thermo Fisher Scientific), followed by digestion of DNA with Benzonase at 37° C. for 1.5 h. Lysate was cleared by centrifugation an protein concentration in supernatant was determined by BCA assay.
Leukemia 25, 89-100 (2011).
Samples were dried in vacuo and resuspended in 0.05% trifluoroacetic acid in water. […]
Reporter ion intensities were read from raw data and multiplied with ion accumulation times (the unit is milliseconds) so as to yield a measure proportional to the number of ions;
Nat Biotech 29, 255-265 (2011). this measure is referred to as ion area Savitski, M. M. et al. Delayed Fragmentation and Optimized Isolation Width Settings for Improvement of Protein Identification and Accuracy of Isobaric Mass Tag Quantification on Orbitrap-Type Mass Spectrometers. […]

log2fc_IAP_24 h_1.0 μM_n1 (replicate n1): −1.79
log2fc_IAP_24 h_1.0 μM_n2 (replicate n2): −2.04
Compound: CNC(=O)c1ccccc1Nc1nc(Nc2ccc(N3CCN(CCOCCOCCOCCOc4ccc5c(c4)CN(C(=O)[C@@H](NC(=O)[C@H](C)NC)C(C)(C)C)[C@H](C(=O)N[C@@H]4CCCc6ccccc64)C5)CC3)cc2)ncc1Cl [IAP, (S)-7-(2-(2-(2-(2-(4-(4-((5-Chloro-4-((2-(methylcarbamoyl)phenyl)amino)pyrimidin-2-yl)amino)phenyl)piperazin-1-yl)ethoxy)ethoxy)ethoxy)ethoxy)-2-((S)-3,3-dimethyl-2-((S)-2-(methylamino)propanamido)butanoyl)-N-((R)-1,2,3,4-tetrahydronaphthalen-1-yl)-1,2,3,4-tetrahydroisoquinoline-3-carboxamide]
